Measurements reported in US6593087B2, “Methods for detecting and reversing resistance to macrocyclic lactone compounds” (priority 1997, dated 2003).

Key:
[1] = tested on: H. contortus moxidectin-resistant strain (MOF14); test: Dose titration to establish LD50 against moxidectin resistant H. contortus in the jird; type: in vivo, Haemonchus contortus; conditions: jirds, oral, treated day 10 after inoculation, probit analysis
Description: (§1) Jirds, which are fed on a standard commercial ration to which 0.02% hydrocortisone has been added 5 days prior to infection, are inoculated with 1000 exsheathed L3 H. contortus. On day 10 after inoculation, the jirds are treated with either water or various doses of moxidectin or ivermectin orally. Each treatment group contains 6 jirds. Probit analyses are used to estimate LD50 levels for each anthelmintic against each strain.

[2] = tested on: H. contortus moxidectin-resistant strain (MOF14); test: Effect of verapamil on efficacy of moxidectin and ivermectin against moxidectin-resistant H. contortus in jirds (Example 8); type: in vivo, Haemonchus contortus; design: key to SIGNIFICANCE AT P <0.05: A: Different letters indicate the mean worm counts are statistically different; B: Different letters indicate the mean worm counts are statistically different; C: Different letters indicate the mean worm counts are statistically different; conditions: for SIGNIFICANCE AT P <0.05: MOF14 in jirds, mean worm counts, IVM (±VRP) not compared with MOX (±VRP)
[3] = tested on: H. contortus susceptible strain (PF14); test: Dose titration to establish LD50 against susceptible H. contortus in the jird; type: in vivo, Haemonchus contortus; conditions: jirds, oral, treated day 10 after inoculation, probit analysis
Description: as §1

[4] = tested on: H. contortus ivermectin resistant strain (ACR); conditions: ACR after twelve generations of ivermectin selection
[5] = tested on: H. contortus ivermectin resistant strain (MFR); conditions: MFR selected over seventeen generations of ivermectin selection; cited from earlier work
[6] = tested on: mice with deletion of mdr1a; conditions: mice with deletion of mdr1a versus normal mice; cited from earlier work
[7] = tested on: H. contortus moxidectin-resistant strain (MOF14); test: Efficacy of verapamil with or without ivermectin against moxidectin resistant H. contortus in jirds (Example 7); type: in vivo, Haemonchus contortus
Description: as §1
(§2) Verapamil is given concomitantly with ivermectin by the oral route.

[8] = tested on: H. contortus susceptible strain (PF14); test: Efficacy of verapamil with or without ivermectin against susceptible H. contortus in jirds (Example 7); type: in vivo, Haemonchus contortus
Description: as §1, §2

[9] = verapamil 20 mg/kg, resistant worms, jirds (Example 8)

Compound | estimated LD50 [1] | SIGNIFICANCE AT P <0.05 [2] | estimated LD50 [3] | resistance at the ED95 compared with ACS [4] | resistance at the ED95 compared with MFS [5] | sensitivity to ivermectin relative to normal mice [6] | significance of worm counts ([7]; MOX-resistant strain MOF14 in jirds, VRP 20 mg/kg, IVM 0.046 mg/kg, oral) | effect of verapamil alone on worm counts ([7]; moxidectin resistant strain, any of the dose rates used (20 to 80 mg/kg), jirds) | effect of verapamil on the efficacy of ivermectin ([7]; verapamil 20 mg/kg, moxidectin resistant worms, jirds (Example 7)) | significance of worm counts ([8]; susceptible strain PF14 in jirds, VRP 20 mg/kg, IVM 0.024 mg/kg, oral) | effect of verapamil alone on worm counts ([8]; susceptible strain, any of the dose rates used (20 to 80 mg/kg), jirds) | effect of verapamil on the efficacy of moxidectin [2, 9] | increase in efficacy when verapamil is coadministered with ivermectin [2, 9]
CO/N=C1\C[C@]2(C[C@@H]3C[C@@H](C/C=C(\C)C[C@@H](C)/C=C/C=C4\CO[C@@H]5[C@H](O)C(C)=C[C@@H](C(=O)O3)[C@]45O)O2)O[C@H](/C(C)=C/C(C)C)[C@H]1C [moxidectin, 23-(O-methyloxime)-LL-F28249α] | 0.017 mg/kg | B | 0.010 mg/kg | – | – | – | – | – | – | – | – | – | –
22,23-dihydroavermectin B1 [ivermectin] | 0.046 mg/kg | B | 0.024 mg/kg | 6.3 × | 10 × | 50-100 times | – | – | – | – | – | – | –
COc1ccc(CCN(C)CCCC(C#N)(c2ccc(OC)c(OC)c2)C(C)C)cc1OC (centres unmarked) [verapamil] | – | A | – | – | – | – | n.s. | no significant effect on worm counts | significantly enhances the efficacy of ivermectin | n.s. | no significant effect on worm counts | significantly increases the efficacy of moxidectin | not significant
